Patent publication EP1911452A1, “Silicon-derivates for PET-Imaging” (Bayer Schering Pharma Aktiengesellschaft, priority 2006, dated 2008)

Assay: Hydrolytic stability: time dependent degree of hydrolysis of the 19F fluorosilane to the hydroxy compound at physiological pH (7.0)
Format: physicochemical
Settings: ratio of hydrolytic halflife to radioactive halflife of the 18-F isotope (1.83 hours)
Experimental: The time dependent degree of hydrolysis of compounds of formula I in which X is a fluorine atom of isotope 19 to compounds of formula I in which X is a hydroxy group was determined at physiological pH (7.0). From the kinetics the hydrolytic halflife (t1/2) measured in hours [h] of compounds of formula I in which X is a fluorine atom of isotope 19 were calculated (Table 1, column 2).
The ratio of the hydrolytic halflifes of compounds of formula I in which X is a fluorine atom of isotope 19 and the radioactive halflife of the 18-F isotope (1.83 hours) is defined as relative stability (Table 1, column 3).
After 6 hours 90% of the 18-F isotope have been decayed.
Compounds of formula I in which X is a fluorine atom of isotope 18 are considered as useful for PET applications if the relative stability of their analogs bearing a fluorine atom of isotope 19 exceed a factor of four and if at least 50% of these compounds remain intact after 6 hours under hydrolytic conditions at pH 7.

Work on `CC(C)C[Si](F)(CC(C)C)c1ccc(C(=O)O)cc1` [Compound 5g - F, 4-(Fluoro-diisobutyl-silanyl)-benzoic acid] yielded a rel. stability of 1.9.
With `CC(C)C[Si](F)(CC(C)C)c1ccc(COC2CCCCO2)cc1` (racemic) [Compound 3g - F, (RS)-Fluoro-diisobutyl-[4-(tetrahydro-pyran-2-yloxymethyl)-phenyl]-silane] the rel. stability was 4.5.
For `F[Si](c1ccccc1)(c1ccccc1)c1ccc(CCOC2CCCCO2)cc1` (racemic) [Compound 3f - F, (RS)-Fluoro-diphenyl-{4-[2-(tetrahydro-pyran-2-yloxy)-ethyl]-phenyl}-silane], the rel. stability was 0.04.
`CC(C)C[Si](F)(CC(C)C)c1ccc(CC(=O)O)cc1` [Compound 5h - F, [4-(Fluoro-diisobutyl-silanyl)-phenyl]-acetic acid] gave a rel. stability of 4.8.
`CC(C)[Si](F)(c1ccc(C(=O)O)cc1)C(C)C` [Compound 5a - F, 4-(Fluoro-diisopropyl-silanyl)-benzoic acid] showed a rel. stability of 6.1.
Work on `CC(C)[Si](F)(c1cccc(CCOC2CCCCO2)c1)C(C)C` (racemic) [Compound 3e - F, (RS)-Fluoro-diisopropyl-{3-[2-(tetrahydro-pyran-2-yloxy)-ethyl]-phenyl}-silane] yielded a rel. stability of over 54.6.
For `CC(C)C[Si](F)(CCCCC(=O)Nc1ccccc1)CC(C)C` [Compound 30a - 1F, 5-(Fluoro-diisobutyl-silanyl)-pentanoic acid phenylamide], the rel. stability was 7.5.
Compound `CC(C)[Si](F)(c1ccc(COC2CCCCO2)cc1)C(C)C` (racemic) [Compound 3a - F, (RS)-Fluoro-diisopropyl-[4-(tetrahydro-pyran-2-yloxymethyl)-phenyl]-silane] has a rel. stability of 27.0.
